Assay results: patent EP2845863A1, “Mathanococcus jannaschii protease and its use” (Consejo Superior de Investigaciones Cientificas (CSIC), priority 2013, dated 2015)
Where two headings read alike, the source gives them in different places. Values belong to the compound of their own block, whether it stands above or below them. Non-standard residues stand in square brackets, D forms with d. Residues, ends and D or L forms follow the SMILES beside them. *: point of attachment. Sta = CC(C)C[C@H](N)[C@@H](O)CC(=O)O; Isovaleryl = CC(C)CC(=O)*

Molecular target: T1, Methanococcus jannaschii selecase, wild type, SEQ ID No: 1 (Methanocaldococcus jannaschii, UniProt Q58610)
T1 sequence (Q58610 1-110): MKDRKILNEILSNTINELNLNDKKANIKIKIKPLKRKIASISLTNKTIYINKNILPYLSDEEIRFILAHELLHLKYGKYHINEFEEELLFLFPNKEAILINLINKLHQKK
Assay: Inhibition assay with fluorogenic substrate Abz-E-L-A-Y-F-Y-P-E-K(dnp)
Format: biochemical
Settings: for activity at 100 µM: inhibitor 0.1 mM
Method: Proteolytic activities were assayed at 37°C in buffer E (50 mM MES, 150 mM NaCl, pH 5.5), buffer F (50 mM HEPES, 150 mM NaCl, pH 7.5) or buffer G (50 mM CHES, 150 mM NaCl, pH 9.5) at a final protein concentration of 50 µg/ml unless otherwise stated.
For inhibition assays, selecase (at 2 µM in buffer F) was incubated for 30 min with different classes of protease inhibitors and the remaining proteolytic activity was then measured using the fluorogenic substrate Ab[…](dnp) at 37°C. Metal substitution assays were performed by removing the pre-existing metal upon purification through dialysis against 10 mM and 1 mM 1,10-phenanthroline and subsequent dialysis against 1 mM and 10 µM chloride or sulfate salt of a set of divalent metals, similarly as described above to obtain fully active protein. Metals tested were zinc, cobalt, magnesium, manganese, calcium, cadmium, copper, and nickel.

[1] = inhibitor 1 mM, selecase 2 µM in buffer F (50 mM HEPES, 150 mM NaCl, pH 7.5), incubated 30 min with inhibitor, remaining activity at 37°C, no inhibitor = 100, mean of three, SD within ±5, read-out: Relative activity (%)
[2] = selecase 2 µM in buffer F (50 mM HEPES, 150 mM NaCl, pH 7.5), incubated 30 min with inhibitor, remaining activity at 37°C, no inhibitor = 100, mean of three, SD within ±5, read-out: Relative activity (%)
[3] = inhibitor 1 mM, selecase 2 µM in buffer F (50 mM HEPES, 150 mM NaCl, pH 7.5), incubated 30 min with inhibitor, remaining activity at 37°C, no inhibitor = 100, mean of three, SD within ±5

Structure (SMILES): O=C(O)CN(CCN(CC(=O)O)CC(=O)O)CC(=O)O [EDTA]
- activity at 1000 µM (pH 7.5, read-out: Relative activity (%)): 0%

Structure (SMILES): N=C(N)c1ccccc1 [Benzamidine]
- activity at 1000 µM [1]: 66%

- activity at 100 µM [2]: 98%
Structure (SMILES): CC(C)C[C@H](NC(=O)[C@H]1O[C@@H]1C(=O)O)C(=O)NCCCCNC(=N)N [E-64]

Structure (SMILES): NCCc1ccc(S(=O)(=O)F)cc1 [Pefabloc]
- Relative activity (%) [3]: 78%

Structure (SMILES): CC(C)CC(=O)N[C@H](C(=O)N[C@H](C(=O)N[C@@H](CC(C)C)[C@@H](O)CC(=O)N[C@@H](C)C(=O)N[C@@H](CC(C)C)[C@@H](O)CC(=O)O)C(C)C)C(C)C [Pepstatin A] (Isovaleryl-VV[Sta]A[Sta]-OH)
- activity at 100 µM [2]: 75%

Structure (SMILES): NC(=O)CI [lodoacetamide]
- activity at 1000 µM [1]: 79%

Structure (SMILES): O=S(=O)(F)Cc1ccccc1 [PMSF]
- Relative activity (%) [3]: 82%
